Test results from patent US20100190694A1, “Methods for identifying patients who will respond well to cancer treatment” (priority 2009, published 2010).
“And” between values parts separate entries of the source, which are not always exact repeats. Equal values may be shown once. Marks after values point to notes of the source that are not given here.

Tests used:
Format in all cases: in vivo, human
p21 = p21 mRNA by RTQ-PCR in PBMC; conditions: for P21 maximum percentage change versus baseline: one value per patient
Description: (§1) DLTs, i.e. grade ¾ non-hematologic toxicities and grade 4 neutropenia or thrombocytopenia, were determined in cycles 1 and 2. Safety was assessed by NCI CTC (v. 3) and efficacy by RECIST criteria. Expression of TS, DPD, and p21 mRNA was measured by RTQ-PCR in PBMC (20 patients at baseline, and pre-dosing, 6 and 24-hours post-dosing, on days 1 and 4 in cycle 1) and in tumor biopsies (8 patients at baseline and once on days 4 or 5 in cycle 1). Results were expressed as gene expression relative to actin (i.e. TS/Actin Relative Gene Expression, DPD/Actin Relative Gene Expression, and p21/Actin Relative Gene Expression).

[1] = tested on: thymidylate synthase (TS); test: TS mRNA by RTQ-PCR in PBMC; conditions: for TS maximum percentage change versus baseline: one value per patient
Description: as §1

[2] = Phase I study: pharmacokinetics of Bel
Source text: Phase I dose-escalation, multi-center study with the objectives to assess: • maximum tolerated dose and dose limiting toxicities (DLT) of Bel in combination with FU • impact of Bel on expression of TS, dihydropyrimidine dehydrogenase (DPD), and p21, in tumor and non-tumor surrogate tissue (peripheral blood mononuclear cells; PBMC) • preliminary anti-tumor activity of Bel in combination with FU • impact of Bel on ECG parameters • pharmacokinetics (PK) of Bel when given in combination with FU
Treatment cycles of 21 days included Bel alone in cycle 1, and Bel in combination with FU in all subsequent cycles (FIG. 4). Treatment was to continue until significant treatment-related toxicity or progressive disease.

[3] = PXD 600, one value per patient, listed as PXD
[4] = PXD 600, one value per patient, listed as PXD, with FU dose 250
[5] = PXD 600, one value per patient, listed as PXD, with FU dose 1000
[6] = PXD 1000, one value per patient, listed as PXD
[7] = PXD 1000, one value per patient, listed as PXD, with FU dose 250
[8] = PXD 1000, one value per patient, listed as PXD, with FU dose 1000
[9] = cycle 1, Belinostat Dose 300 mg/m^2/day
[10] = cycle 1, Belinostat Dose 600 mg/m^2/day
[11] = cycle 1, Belinostat Dose 1000 mg/m^2/day
[12] = belinostat 1000 mg/m^2/day alone, Cycle 2 Day 1, n = 14
[13] = belinostat 1000 mg/m^2/day in combination with FU, Cycle 2 Day 5, n = 13

O=C(/C=C/c1cccc(S(=O)(=O)Nc2ccccc2)c1)NO [PXD-101]
6mean-p21, Change from baseline at 6 h based on mean of d1 + d4 (p21; PXD 300, one value per patient): 41%
D1-6: p21, Change from baseline at 6 h day 1 (p21; PXD 300, one value per patient): 35%
D1-6: p21, Change from baseline at 6 h day 1 (p21; [3]): −9% and 31% and −48%
6mean-p21, Change from baseline at 6 h based on mean of d1 + d4 (p21; [4]): −16% and −55%
6mean-p21, Change from baseline at 6 h based on mean of d1 + d4 (p21; [5]): 15%
D1-6: p21, Change from baseline at 6 h day 1 (p21; [6]): 272% and −54% and 115% and −25% and 16% and 43% and 21% and 13% and −11% and 74% and 68%
6mean-p21, Change from baseline at 6 h based on mean of d1 + d4 (p21; [7]): 272% and −55% and 155% and −17% and 44% and 32%
6mean-p21, Change from baseline at 6 h based on mean of d1 + d4 (p21; PXD 1000, one value per patient, listed as PXD, with FU dose 500): 21% and −25%
6mean-p21, Change from baseline at 6 h based on mean of d1 + d4 (p21; [8]): −35% and 23% and 74%
P21 maximum percentage change versus baseline (p21; [9]): 48% *
P21 maximum percentage change versus baseline (p21; [10]): 43% * and 88% * and −86%
P21 maximum percentage change versus baseline (p21; [11]): 68% * and 972% * and −72% and 715% * and 62% * and 156% * and 43% * and −71% and −83% and −86% and 74% * and −47%
6mean-TS, Change from baseline at 6 h based on mean of d1 + d4 ([1]; PXD 300, one value per patient): 410%
D1-6: TS, Change from baseline at 6 h day 1 ([1]; PXD 300, one value per patient): 486%
D1-6: TS, Change from baseline at 6 h day 1 [1, 3]: 62% and −87% and 144%
6mean-TS, Change from baseline at 6 h based on mean of d1 + d4 [1, 4]: 126% and 144%
6mean-TS, Change from baseline at 6 h based on mean of d1 + d4 [1, 5]: −65%
D1-6: TS, Change from baseline at 6 h day 1 [1, 6]: −51% and 63% and −21% and 88% and −14% and 274% and 238%
6mean-TS, Change from baseline at 6 h based on mean of d1 + d4 [1, 7]: −51% and 54% and 286% and 169% and 182%
6mean-TS, Change from baseline at 6 h based on mean of d1 + d4 [1, 8]: 51% and 142%
TS maximum percentage change versus baseline [1, 9]: 486%
TS maximum percentage change versus baseline [1, 10]: 190% and −87% * and 144%
TS maximum percentage change versus baseline [1, 11]: 238% and −51% * and 63% and 594% and 250% and 116% and 274% and −67% * and 214%
CL, group mean (±SD) [2, 12]: 37,580 (10,893) ml/hr/m^2
Vss, group mean (±SD) [2, 12]: 16,528 (4,918) ml/m^2
Vz, group mean (±SD) [2, 12]: 58,362 (26,136) ml/m^2
CL, group mean (±SD) [2, 13]: 30,141 (13,824) ml/hr/m^2
Vss, group mean (±SD) [2, 13]: 13,538 (7,253) ml/m^2
Vz, group mean (±SD) [2, 13]: 53,316 (29,753) ml/m^2
PK linearity ([2]; day 1 across all dose cohorts (n=22)): linear PK
half-life ([2]; human, in vivo, intravenous, 1000 mg/m2, belinostat 1000 mg/m^2/day alone, Cycle 2 Day 1, n = 14, read-out: T1/2, group mean (±SD) (converted)): 60 min
AUC(0-inf) ([2]; human, in vivo, intravenous, belinostat 1000 mg/m^2/day in combination with FU, Cycle 2 Day 5, n = 13, read-out: AUC0-∞, group mean (±SD)): 33300 ng·h/mL
